From patent US5922582A, “Indole alkaloid type compound 0089-D” (HIGETA SHOYU Co., Ltd., priority 1998, dated 1999) come the findings set out here.

Each structure is given as a SMILES string. Values after ≈ are worked out from the molar mass of the structure shown.

In general, IC50 refers to the concentration needed to halve the response being measured. As a reminder, the MIC is the lowest concentration found to suppress growth. Lower therefore signals greater potency.

For data set [1], the system named is Nocardia brasiliensis IFM 0089. In words: Susceptibility to antibiotics of the producing strain. In kind it is cell-based. Here is the method: The present strain was cultured in a medium (brain heart infusion containing 2% glucose) at 250 rpm at 30° C. for 72 hours with shaking, and the cells grown in the medium was harvested by centrifugation (3000 rpm×10 minutes) and washed twice with distilled water. Further, the cells were washed with ethanol and then dried under vacuum to give the dried cells. The amino acid composition, sugar composition and lipid composition of the cell wall of this dried cells were examined on the basis of Bergey's Manual of Determinative Bacteriology, 9th ed., Williams, Baltimore, 1993. Meso-diaminopimelic acid was detected in the amino acid analysis, and arabinose and galactose were detected in the sugar analysis. The presence of mycolic acid was confirmed from the result of the lipid analysis, and its type was Nocardia type. Isoprenoid quinone, i.e., a cell lipid component was confirmed to contain MK-8 (H4) cycle as a major component. The present strain was identified as Nocardia brasiliensis, further from its ability to assimilate casein, hypoxanthine and tyrosine and from its production pattern of acid from sugar and its susceptibility pattern to antimicrobial agents as shown in Table 4 (Mikami & Yazawa, Susceptibility pattern of pathogenic Nocardia to some selected antimicrobial agents and their usefulness in the identification work in a clinical laboratory: Bull. JFCC "Bulltein of the Japan Federation for Culture Collections", 5: 89-95, 1989).

In data set [2] the test system is adriamycin-resistant P388 (P388/ADR) cells. The experiment in a line: Cytotoxicity on adriamycin resistant P388 (P388/ADR) (MTT). The data set is classed as cell-based. Conditions: 72 hours, read-out: IC50 (growth of tumor cells). The procedure: (§1) Cytotoxicity of compound 0089-D on cultured tumor cell lines, P388, adriamycin resistant P388 (P388/ADR), L1210 and KB was examined in the following manner.
(§2) L1210 was suspended in RPMI1640 medium, P388 and P388/ADR in RPMI1640 medium containing 20 μM of 2-mercaptoethanol, and KB in Dulbecco's MEM medium (any medium contained 10% fetal bovine serum) respectively whereby cell suspension (5.6×10^4 cells/ml) were prepared. The test sample was dissolved in methanol and diluted serially with each medium to give solutions containing the test sample at various concentrations. […] 72 hours thereafter, cell growth was measured by the following calorimetric assay method using 3-(4,5-dimethyl-2-thiazolyl)-2,5-diphenyl-2H-tetrazolium bromide (MTT).
(§3) That is, 20 μl of 2 mg/ml MTT solution was added to each well and the cells were incubated for 4 hours at 37° C. Thereafter, 50 μl of 50% dimethylformamide solution containing 20% sodium dodecyl sulfate was added to each well to dissolve the formed violet formazan crystal, and its absorbance at 570 nm was measured in a microplate reader (immunoreader) and used as an indicator of the growth. […]
(§4) Degree of inhibition=[1--(absorbance in the presence of test sample)/(absorbance in the absence of test sample)]×100

Another data set relates to various microorganisms. The experiment in a line: Antimicrobial activity on various microorganisms, overall. The data set is classed as cell-based. Conditions: in words. The procedure:
(§5) The antimicrobial activity of compound 0089-D on various microorganisms was confirmed by determining minimum inhibitory concentration (MIC) on growth.
(§6) The MIC of compound 0089-D for various microorganisms was determined in a Muller Hinton broth (BBL) containing 0.2% glucose according to the regulations of the Japan Chemotherapy Association (The Essentials of Antibiotics, 4th ed., Tokyo University Press, 1992).
(§7) Each test microorganism was prepared at density of 1×10^6 cfu/ml in the above medium to prepare a test microorganism liquid.
(§8) To determine MIC for fungi, Sabouraud's Dextrose liquid medium was used and the density of the test fungi was 1×10^4 cfu/ml.
(§9) The test sample (compound 0089-D) was dissolved in methanol and diluted in the above Muller Hinton broth by subjecting it to serial 2-fold dilution starting at the concentration of 1 mg/ml. 180 μl of the test microorganism liquid and 20 μl of the test sample solution were put through a pipette to a 96-well micro-titer plate and incubated at 37° C. 24 hours thereafter, growth was examined by the eye to determine MIC.

Data set [3] concerns N. otitidiscaviarum IFM0239. The experiment in a line: Antimicrobial activity, MIC. The data set is classed as cell-based. Conditions: N. otitidiscaviarum IFM0239, Muller Hinton broth, 37° C., 24 hours. The procedure: as §5, §6, §7, §9
A further data set relates to M. phlei ATCC11758. In words: Antimicrobial activity, MIC. The data set is classed as cell-based. Conditions: Mycolicibacterium phlei; M. phlei ATCC11758, Muller Hinton broth, 37° C., 24 hours. The procedure:
as §5, §6, §7, §9

For another data set, the system named is N. nova IFM0290. In words: Antimicrobial activity, MIC. In kind it is cell-based. Conditions: N. nova IFM0290, Muller Hinton broth, 37° C., 24 hours. Here is the method: as §5, §6, §7, §9
Data set [4] has as its system N. pseudobrasiliensis IFM0624. The experiment in a line: Antimicrobial activity, MIC. The data set is classed as cell-based. Conditions: N. pseudobrasiliensis IFM0624, Muller Hinton broth, 37° C., 24 hours. Here is the method:
as §5, §6, §7, §9

The next data set has as its system N. brasiliensis IFM0236. The experiment in a line: Antimicrobial activity, MIC. In kind it is cell-based. Conditions: N. brasiliensis IFM0236, Muller Hinton broth, 37° C., 24 hours. The procedure:
as §5, §6, §7, §9

In another data set the test system is N. farcinica IFM0284. In words: Antimicrobial activity, MIC. The data set is classed as cell-based. Conditions: Nocardia farcinica; N. farcinica IFM0284, Muller Hinton broth, 37° C., 24 hours. Here is the method: as §5, §6, §7, §9
Data set [5] deals with Mycobacterium smegmatis ATCC607. In words: Antimicrobial activity, MIC. In kind it is cell-based. Conditions: Mycolicibacterium smegmatis; Mycobacterium smegmatis ATCC607, Muller Hinton broth, 37° C., 24 hours. Here is the method:
as §5, §6, §7, §9

Data set [6] relates to Micrococcus luteus IFM2066. In words: Antimicrobial activity, MIC. The data set is classed as cell-based. Conditions: Micrococcus luteus IFM2066, Muller Hinton broth, 37° C., 24 hours. The procedure: as §5, §6, §7, §9
A further data set relates to N. asteroides IFM0319. The experiment in a line: Antimicrobial activity, MIC. In kind it is cell-based. Conditions: Nocardia asteroides; N. asteroides IFM0319, Muller Hinton broth, 37° C., 24 hours. Here is the method:
as §5, §6, §7, §9

Another data set has as its system M. flavescens ATCC14474. The experiment in a line: Antimicrobial activity, MIC. Conditions: Mycolicibacterium flavescens; M. flavescens ATCC14474, Muller Hinton broth, 37° C., 24 hours. The data set is classed as cell-based. The procedure:
as §5, §6, §7, §9

The test system of another data set is Bacillus subtilis PCI189. The experiment in a line: Antimicrobial activity, MIC. The data set is classed as cell-based. Conditions: Bacillus subtilis PCI189, Muller Hinton broth, 37° C., 24 hours. The procedure:
as §5, §6, §7, §9

The test system of data set [7] is Nocardia transvalensis IFM0333. The experiment in a line: Antimicrobial activity, MIC. In kind it is cell-based. Conditions: Nocardia transvalensis IFM0333, Muller Hinton broth, 37° C., 24 hours. The procedure:
as §5, §6, §7, §9

In another data set the test system is Micrococcus luteus. In words: Paper disk method, growth inhibition of Micrococcus luteus. The data set is classed as cell-based. Conditions: nutrient agar, 30° C., 24 hours. The procedure: The resulting culture, 150 L, was filtered through a filter cloth whereby the cells were recovered. The operation of extracting the cells was carried out by adding 20 L methanol. The thus-obtained extract was concentrated and evaporated into dryness in an evaporator. 1 L distilled water was added to 4 g of the dried matter to give a suspension, which was then partitioned and extracted 3 times with 1 L of n-hexane. The n-hexane fraction, 3 L, was concentrated and evaporated into dryness in an evaporator, dissolved in 8 ml of an n-hexane:ethyl acetate mixture (20:1) and subjected to silica gel chromatography (column 6 cm×20 cm). After impurities were eluted with 2 L of an n-hexane : ethyl acetate mixture (20 1), compound 0089-D was eluted with 2 L of an n-hexane:ethyl acetate mixture (10:1). Detection of compound 0089-D in the eluted fraction was carried out using growth inhibitory activity on a test microorganism Micrococcus luteus as the indicator by the following paper disk method.
The eluted fraction was adsorbed onto a paper disk and placed on a nutrient agar medium (Difco) on which M. luteus had been spread, and then incubated at 30° C. for 24 hours.

The test system of data set [8] is cultured tumor cells (P388, P388/ADR, L1210 and KB). The experiment in a line: Cytotoxicity on the cultured tumor cells, overall (MTT). In kind it is cell-based. Conditions: in words. Here is the method: as §1, §2, §3, §4
Another data set relates to KB cells. The experiment in a line: Cytotoxicity on cultured tumor cell line KB (MTT). In kind it is cell-based. Conditions: Homo sapiens, 72 hours, read-out: IC50 (growth of tumor cells). The procedure: as §1, §2, §3, §4
Data set [9] relates to Candida albicans ATCC90028. In words: Antimicrobial activity, MIC (fungi). In kind it is cell-based. Conditions: Candida albicans ATCC90028, Sabouraud's Dextrose liquid medium, 37° C., 24 hours. Here is the method:
as §5, §6, §8, §9

The test system of data set [10] is Aspergillus niger ATCC40606. The experiment in a line: Antimicrobial activity, MIC (fungi). The data set is classed as cell-based. Conditions: Aspergillus niger ATCC40606, Sabouraud's Dextrose liquid medium, 37° C., 24 hours. The procedure:
as §5, §6, §8, §9

The next data set has as its system P388 cells. In words: Cytotoxicity on cultured tumor cell line P388 (MTT). The data set is classed as cell-based. Conditions: Mus musculus, P388, 72 hours, read-out: IC50 (growth of tumor cells). The procedure:
as §1, §2, §3, §4

A short description of the next data set: Solubility. In kind it is physicochemical.
The test system of another data set is L1210 cells. The experiment in a line: Cytotoxicity on cultured tumor cell line L1210 (MTT). The data set is classed as cell-based. Conditions: Mus musculus, L1210, 72 hours, read-out: IC50 (growth of tumor cells). Here is the method: as §1, §2, §3, §4

For the molecule `O=c1[nH]cc(F)c(=O)[nH]1` [Compound 5-FU, 5-FU], in data set [1], the Susceptibility to antibiotics result is on record as “negative”.

Take `[C-]#[N+]C(=C\c1cn(C)c2ccccc12)/C=C/C(=C)C` [Compound 0089-D]: the 50% inhibitory concentration (IC50) in [2] is 0.56 µg/mL (≈ 2.26 µM); with KB cells, 0.75 µg/mL (≈ 3.02 µM); in the data set on P388 cells it was 0.44 µg/mL (≈ 1.77 µM); in the data set with L1210 cells it was 0.25 µg/mL (≈ 1.01 µM). Also, in the data set with various microorganisms, the antimicrobial spectrum entry was “wide antimicrobial spectrum”. In addition, the MIC in data set [3] turned out to be 6.25 µg/mL (≈ 25.2 µM); with M. phlei ATCC11758, 1.56 µg/mL (≈ 6.28 µM); with N. nova IFM0290 it was 1.56 µg/mL (≈ 6.28 µM); in data set [4], 3.13 µg/mL (≈ 12.6 µM); in the data set with N. brasiliensis IFM0236 it was 25 µg/mL (≈ 101 µM); with N. farcinica IFM0284, 12.5 µg/mL (≈ 50.3 µM). Moreover, the minimal inhibitory concentration (MIC) in [5] was 0.78 µg/mL (≈ 3.14 µM); in data set [6], 3.13 µg/mL (≈ 12.6 µM); in the data set on N. asteroides IFM0319, 12.5 µg/mL (≈ 50.3 µM); against M. flavescens ATCC14474, 3.13 µg/mL (≈ 12.6 µM); with Bacillus subtilis PCI189, 3.13 µg/mL (≈ 12.6 µM); in data set [7], 3.13 µg/mL (≈ 12.6 µM). Also, the minimal inhibitory concentration (MIC) in data set [9] turned out to be 25 µg/mL (≈ 101 µM); in data set [10], 0.39 µg/mL (≈ 1.57 µM). Besides, the “inhibition zone of growth” value in the data set with Micrococcus luteus is listed as “inhibition zone of growth of M. luteus”. Besides, the “cytotoxicity on the cultured tumor cells” value in [8] was “strong cytotoxicity”. In addition, the Solubility result is recorded as “Soluble” in “Solubility” (ether); “Soluble” in the data set “Solubility” (ethyl acetate); “Slightly soluble” in the data set “Solubility” (hexane); “Soluble” in “Solubility” (methanol); “Insoluble” in “Solubility” (water).

As to `C[C@@H](O)[C@H]1C(=O)N2C(C(=O)O)=C(SCCN=CN)C[C@H]12` [imipenem], the Susceptibility to antibiotics entry in [1] is on record as “negative”.

With `NC[C@H]1O[C@H](O[C@H]2[C@H](O)[C@@H](O[C@H]3O[C@H](CO)[C@@H](O)[C@H](N)[C@H]3O)[C@H](N)C[C@@H]2N)[C@H](O)[C@@H](O)[C@@H]1O` [kanamycin], the Susceptibility to antibiotics entry in [1] was “negative”.

For `NC[C@H]1O[C@H](O[C@H]2[C@H](O)[C@@H](O[C@H]3O[C@H](CO)[C@@H](O)[C@H](N)[C@H]3O)[C@H](N)C[C@@H]2N)[C@H](N)C[C@@H]1O` [tobramycin], the Susceptibility to antibiotics entry in [1] is recorded as “positive”.
